Laboratory results as given in patent EP1967187A1, “Composition based on rutin and L-lysine” (Ennamany, Rachid, priority 2007, dated 2008).

Target: T1, arginase Th2-dépendante (Homo sapiens, UniProt P05089)
T1 sequence (P05089 1-322): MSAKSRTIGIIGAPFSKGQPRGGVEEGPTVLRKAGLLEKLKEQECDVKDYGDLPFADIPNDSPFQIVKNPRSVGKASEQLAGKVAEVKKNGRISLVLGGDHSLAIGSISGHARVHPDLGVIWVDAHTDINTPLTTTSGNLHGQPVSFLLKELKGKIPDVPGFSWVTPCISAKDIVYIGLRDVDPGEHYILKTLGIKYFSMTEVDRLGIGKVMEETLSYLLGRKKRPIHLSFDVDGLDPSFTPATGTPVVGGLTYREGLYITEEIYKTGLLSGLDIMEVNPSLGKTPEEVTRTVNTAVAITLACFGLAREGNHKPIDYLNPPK
Assay: Inhibition of Th2-dependent arginase
Format: biochemical

NCCCC[C@H](N)C(=O)O [L-Lysine, L-lysine]
action sur l'arginase Th2-dépendante: action inhibitrice
